# Data: article PMC8776894 (Communications Biology, 2022)
# “And” between values parts separate entries of the source, which are not always exact repeats. Equal entries are not always repeated. Where two headings read alike, the source gives them in different places.
# How the values were obtained:
# [1] = tested on: MCAO mice; experiment: Mortality after MCAO; format: in vivo, mouse; conditions: vehicle 29.06, P >0.05 vs vehicle
# Description: Experimental ischemic stroke was performed by MCAO using published protocols[63],[64] with some modifications. In detail, mice (8–10 weeks)[65] were deeply anesthetized with 1.5% isoflurane in a mixture of 30% O2 and 69% N2O. Conditions of the blood gas were maintained at constant levels throughout the operation (PO2, 120 ± 10 mmHg; PCO2, 35 ± 3 mmHg) and temperatures in the temporal muscle and rectum were also maintained at 37.5 ± 0.2°C and 37.0 ± 0.1°C, respectively. Body temperature was kept in the normal range (36.5–37.5 °C) with a heating lamp and a heating pad during surgery. All surgical supplies and instruments were sterilized. The […] (CCA) and the external carotid artery were then gently separated. The blood flow of CCA was blocked with a sterile nylon suture (No.: MSMC21B120PK50, Ruiwode Bio-technology Co., Ltd., China), which was inserted into middle cerebral artery from CCA. The mice in the sham group underwent the same surgery without a nylon suture. After 60 min, the suture was removed and the blood circulation was recovered, MCAO/R was induced. Regional CBF was monitored in all stroke animals by LSCI (PeriScan PSI System; PERIMED, Stockholm, Sweden) to confirm a successful occlusion. […]
# [2] = tested on: MCAO/R mice; experiment: MRI of cerebral infarction after MCAO/R; format: in vivo, mouse; conditions: VK 300 i.p. at 0, 4, 22.5, 46.5 h, T2-weighted
# Description: After MCAO/R, mice were treated with VK ([…], i.p.) at 0, 4, 22.5, and 46.5 h. Mice were deeply anesthetized with 1.5% isoflurane in a mixture of 30% O2 and 69% N2O. The magnetic resonance imaging (MRI) experiments were performed on a horizontal bore 9.4 Tesla scanner operating on a Bruker Avance platform (Bruker 9.4 T Biospec). T2-weighted imaging was used to evaluate the infarct volume. Three mutually perpendicular images were obtained to localize the infarction site. Then, 13–15 T2-weighted axial slices (1 mm thick) covering the entire damage area (field of view = 30 × 30 mm, matrix size = 256 × 256, echo time^3 = 33 ms, repetition time[68] = 3500 ms) were acquired by a spin-echo pulse sequence to delineate anatomical details and calculate qualitative T2 maps[69].
# [3] = tested on: MCAO/R mice, brain homogenate; experiment: Biochemical kits, oxidative stress in brain (SOD, MDA, LPO, glutathione); format: in vivo, mouse; conditions: 48 h
# Description: […] The brain was collected, weighed, and placed in a homogenizer for homogenization. Using 0.9% normal saline (NS) as a homogenization medium, a 10% tissue homogenate was prepared, centrifuged at 3500 rpm for 10 min, and the supernatant was taken. Kits for ATP, glutamic acid, glutathione, lactic acid, LPO, MDA, and SOD were purchased from Nanjingjiancheng Bioengineering Institute, and were measured as previously described for specification.
# [4] = tested on: MCAO/R mice, brain homogenate; experiment: Biochemical kits, energy metabolism in brain (ATP, lactic acid); format: in vivo, mouse
# Description: Mice were sacrificed under ether anesthesia 3 days after stroke. The brain was collected, weighed, and placed in a homogenizer for homogenization. Using 0.9% normal saline (NS) as a homogenization medium, a 10% tissue homogenate was prepared, centrifuged at 3500 rpm for 10 min, and the supernatant was taken. Kits for ATP, glutamic acid, glutathione, lactic acid, LPO, MDA, and SOD were purchased from Nanjingjiancheng Bioengineering Institute, and were measured as previously described for specification.
# [5] = tested on: HT22 cells (OGD/R); experiment: Intracellular ROS (DCFH-DA, flow cytometry); format: cell-based, mouse; conditions: 24-h pretreatment with VK
# [6] = tested on: HT22 cells (OGD/R); experiment: Seahorse O2 consumption rate (OCR); format: cell-based, mouse; conditions: dose-dependent
# Description: (§1) HT22 cells were counted and plated at 8000 cells per well in a Seahorse XF96 Cell Culture Microplate for all experiments (Agilent). They were then treated with VK (0.0735 or 0.735 μM) for 24 h. […] Next, HT22 cells were washed after 24 h of incubation and were incubated in a 0% CO2 chamber at 37 °C for 1 h, before being placed into a Seahorse XFe96 Analyzer (Agilent). In OCR experiment, HT22 cells were treated, with 2 μM of oligomycin, 5 μM of FCCP, and 1 μM of rotenone and antimycin, respectively; to assess ECAR, they were treated with 1 μM of rotenone and antimycin and 50 mM of 2-DG. All OCR and ECAR data were normalized to cell number per well using WAVE (Agilent).
# [7] = tested on: HT22 cells (OGD/R); experiment: Seahorse extracellular acidification rate (ECAR); format: cell-based, mouse; conditions: dose-dependent
# Description: as §1
# [8] = tested on: IL-1β, TNF-α, IL-6, IL-8, IL-10 in serum; experiment: Cytokine ELISA in serum; format: in vivo, mouse; conditions: MCAO/R mice, 48 h
# Description: Mice were decapitated under anesthesia at 48 h after MCAO/R. The IL-1β (Cat# 88-5019-88), TNF-α (Cat# 88-7324-22), IL-6 (Cat# 88-7064-88), and IL-8 (Cat# 88-8086-22) were purchased from Thermo Fisher Scientific. The levels of these proteins were measured by enzyme-linked immune sorbent assays (ELISA) kits, according to the manufacturer’s recommendations.
# [9] = tested on: pyramidal neurons of mouse neocortex; format: in vivo; conditions: for Fig.6g mEPSC amplitude per recorded neuron: individual values
# [10] = tested on: rat CNS; conditions: injected directly into the rat CNS; cited from earlier work
# Text: B1R and B2R both belong to the G protein-coupled receptor (GPCR) family, with B2R mediating most of the physiological functions of kinin. It has been increasingly appreciated that BK and Lys-BK could act as a ‘double-edged sword’. By inhibiting oxidative stress and apoptosis, the systemic or local delivery of human TK protects against mouse myocardial I/R injury via B2R. Similarly, we described that the neuroprotective effects of VK on stroke in mice was inhibited by HOE140, the specific antagonist of B2R. We also conducted the autodock experiment to evaluate the combination of VK and B2R. The ...
substance,measurement,setting,value
"Gly-Arg-Pro-Hyp-Gly-Phe-Ser-Pro-Phe-Arg-Ile-Asp [VK, Vespakinin-M]",Death rate (mortality) of MCAO mice,"[1]; VK 150 μg/kg, 48 MCAO animals",25%
same,Death rate (mortality) of MCAO mice,"[1]; VK 300 μg/kg, 64 MCAO animals",18.75%
same,"area of cerebral infarction, MRI",[2],reduced the area of cerebral infarction
same,"glutathione in brain, between groups",[3],no obvious difference
same,MDA and LPO content in brain cortex vs vehicle,[3]; VK 150 and 300 µg/kg,decreased content of MDA and LPO
same,SOD activity in brain cortex vs vehicle,[3]; VK 150 and 300 µg/kg,enhanced SOD activity
same,LD content in brain vs vehicle,[4],lower LD content
same,ATP activity in brain vs vehicle,[4]; VK-treated groups,increased ATP activity
same,OGD-induced ROS levels,[5],rescue the OGD-induced ROS levels
same,mitochondrial oxygen consumption rate in neurons,[6],accelerated the mitochondrial oxygen consumption rate
same,glycolysis (extracellular acidification rate) in neurons,[7],decreased glycolysis
same,IL-10 level in serum vs vehicle,[8],increase in IL-10 levels
same,"IL-1β, TNF-α, IL-6 and IL-8 levels in the peripheral (serum) vs vehicle",[8]; VK 150 and 300 µg/kg,"decreased IL-1β, TNF-α, IL-6, and IL-8 levels"
same,action potential threshold of pyramidal neurons vs vehicle,[9]; 48 h after MCAO,higher action potential threshold
same,Fig.6g mEPSC amplitude per recorded neuron,"[9]; VK150, n = 14",19.084 pA and 16.328 pA and 11.543 pA and 20.277 pA and 16.752 pA and 17.611 pA and 14.33 pA and 14.518 pA and 18.178 pA and 20.574 pA and 16.408 pA and 17.172 pA and 18.064 pA and 16.721 pA
same,Fig.6g mEPSC amplitude per recorded neuron,"[9]; VK300, n = 18",16.409 pA and 16 pA and 15.374 pA and 15.042 pA and 15.977 pA and 15.473 pA and 16.722 pA and 19.242 pA and 17.388 pA and 16.685 pA and 16.328 pA and 14.712 pA and 16.978 pA and 16.137 pA and 19.209 pA and 18.238 pA and 16.732 pA and 16.833 pA
same,amplitude of mEPSCs,[9]; after stroke in mice,no obvious effects on the amplitude of mEPSCs
same,anti-nociceptive potency relative to BK,[10],approximately three times more potent
